The values that follow come from publication PMC11799985 (ACS Omega, 2024).

Data set [1] relates to T. cruzi epimastigote. Also on record: method as in PMID 26014945, PMID 29357372, PMID 28241112, PMID 19937668, PMID 19060927. The conditions noted are these: cited from earlier work.
Data set [2] has as its system T. cruzi amastigote. Also on record: method as in PMID 26014945, PMID 29357372, PMID 28241112, PMID 19937668, PMID 19060927. Conditions: cited from earlier work.
Data set [3] deals with T. brucei. More on the design: method as in PMID 7097719. The conditions noted are these: cited from earlier work.
Data set [4] concerns infected mice. Conditions: cited from earlier work.
Data set [5] deals with T1, TbSir2rp1 (Trypanosoma brucei brucei, UniProt Q57V41).
T1 construct: The TbSir2rp1 gene was cloned into the pET24(+) expression plasmid (Novagen); His tag; made in house; host or cells: Escherichia coli BL21-Codon Plus (DE3)-RIL
T1 sequence (Q57V41 1-351): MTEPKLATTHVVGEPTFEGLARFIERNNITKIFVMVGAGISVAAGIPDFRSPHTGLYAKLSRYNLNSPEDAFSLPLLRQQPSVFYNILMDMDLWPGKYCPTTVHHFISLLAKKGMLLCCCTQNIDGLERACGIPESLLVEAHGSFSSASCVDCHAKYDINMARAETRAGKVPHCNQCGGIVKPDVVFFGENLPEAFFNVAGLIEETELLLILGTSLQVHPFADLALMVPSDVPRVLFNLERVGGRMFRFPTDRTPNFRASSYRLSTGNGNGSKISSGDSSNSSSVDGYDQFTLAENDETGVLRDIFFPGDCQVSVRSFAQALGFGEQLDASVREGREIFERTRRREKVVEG
Description: biochemical. Conditions: for ligand efficiency (LE): LE = –R·T·ln(IC50)/HAC, from TbSir2rp1 IC50; for IC50: TbSir2rp1, enzyme 1 μM, NAD+ 100 μM, acetylated peptide 50 μM, 37 °C, 2 h, read-out: IC50; for Hill coefficient (nH): concentration–response curve against TbSir2rp1. The method, then: The acetylated peptide corresponds to the sequence Abz-Gly-Pro-acetylLys-SerGln–EDDnp, where Abz is ortho-aminobenzoic acid and EDDnp is N-[2,4-dinitrophenyl]ethylenediamine.
To halt the deacetylation reaction, 4 mM nicotinamide was used. For each pair of wells in the 96-well plate, 0.2 mg/mL of trypsin was added to only one well to hydrolyze the acetylated peptide, enabling fluorescence emission. Fluorescence was measured immediately at 420 nm with excitation at 320 nm using a SpectraMax M2 microplate reader (Molecular Devices).
Deacetylation activity was determined by the difference between the well where trypsin was added and the well without trypsin. All assays were performed in triplicate, and activity values were reported as means ± standard deviations with outliers identified and excluded from the calculations. Statistical analyses were conducted using Prism 7 software (GraphPad).
The screening of the 90 fragments was performed at a single concentration of 500 μM in triplicate. The enzyme was used at 1 μM, and the substrates NAD^+ and acetylated peptide were used at 100 and 50 μM, respectively. Incubation was carried out at 37.0 °C for 2 h. Each fragment was added to a pair of wells, with trypsin being added to only one well, as previously described for inhibitory activity calculation. […] Ligand efficiency (LE) was calculated as LE = –R·T·ln(IC50)/HAC using IC50 values instead of KD for comparison. […] The inhibition mechanism was characterized using Lineweaver–Burk plots under five concentrations of each substrate and three concentrations of the fragment. IC50 values were determined with at least seven different concentrations, and Lineweaver–Burk analysis used six concentrations.

Data set [6] deals with human lung cells (WI-26VA-4). Also on record: method as in PMID 33295837. Conditions: WI-26VA-4 human lung cells; cited from earlier work.
Data set [7] deals with T. cruzi. More on the design: method as in PMID 34936867. The conditions noted are these: T. cruzi-infected mice; cited from earlier work.
The subject of data set [8] is L. donovani amastigote. Also on record: method as in PMID 26014945, PMID 29357372, PMID 28241112, PMID 19937668, PMID 19060927. The conditions noted are these: cited from earlier work.
Data set [9] relates to TcSir2rp3. More on the design: method as in PMID 26014945, PMID 29357372, PMID 28241112, PMID 19937668, PMID 19060927. The conditions noted are these: cited from earlier work.
For data set [10], the system named is LiSir2rp1. More on the design: method as in PMID 26014945, PMID 29357372, PMID 28241112, PMID 19937668, PMID 19060927. The conditions noted are these: cited from earlier work.
Data set [11] concerns L. infantum amastigote. More on the design: method as in PMID 26014945, PMID 29357372, PMID 28241112, PMID 19937668, PMID 19060927. The conditions noted are these: cited from earlier work.
Data set [12] concerns the target T1, TbSir2rp1. The experiment in a line: biochemical. Format: biochemical.
The mark [13] stands for this setting: read-out: % Inhibition TbSir2rp1, Table S2, complete fragment library, single concentration of 500 μM.
[14] abbreviates: read-out: % Inhibition TbSir2rp1 at 500 μM, Table 1, fragment 500 μM, triplicate, mean ± SD.

Where “and” joins values, the source holds several entries; their conditions need not be identical. Identical values can stand only once. Like-named read-outs stand apart in the source and are kept apart here.

For `O=C1c2cccc3cccc(c23)C(=O)N1CCCNCCCCNCCCNCCCN1C(=O)c2cccc3cccc(c23)C1=O` [BNIPSpd], the EC50 (in general, the midpoint of the concentration-response curve) was 13.3 µM in [1] and 2.8 µM in data set [2]. With `Cc1c(O)c2ccccc2c2nc(N)sc12` [Fragment 1], the minimum lytic concentration in [3] was 100 µM. For the same molecule, in data set [4], the maximum tolerated dose was 50 mg/kg. For the same molecule, in data set [5], the “ligand efficiency (LE)” value is 0.41; the IC50 (as a rule, the concentration that inhibits the measured activity by half) was found to be 17.8 µM; the “Hill coefficient (nH)” value was 1.22. For the same molecule, the inhibition at 500 µM in [5] (setting [13]) came to 99 ± 0.47%. Further, the inhibition at 500 µM in data set [5] (setting [14]) was found to be 99 ± 0.5%. Take `Cc1ccc(S(=O)(=O)N/N=C/c2cccs2)cc1` [Fragment 2]: the 50% cytotoxic concentration (CC50) (commonly the concentration at which the toxic effect on the cells reaches its halfway point) in [6] is 226 µM. In data set [5], the “ligand efficiency (LE)” value is given as 0.31; the IC50 was < 100 µM and 77.9 µM; the “Hill coefficient (nH)” value came out at 0.77. Further, the inhibition at 500 µM in data set [5] (setting [13]) stood at 84 ± 2.3%. For the same molecule, the inhibition at 500 µM in [5] (setting [14]) amounted to 83.7 ± 2.3%.

As for `O=C(/C=C/c1ccc(Cl)cc1)c1cccs1` [O=C(/C=C/C1=CC=C(Cl)C=C1)C2=CC=CS2], in data set [5] (setting [13]), the inhibition at 500 µM came to 32 ± 8.5%.

For the molecule `COC1=CC(=O)c2ccccc2C1=O` [O=C(C1=C2C=CC=C1)C(OC)=CC2=O], in data set [5] (setting [13]), the inhibition at 500 µM was determined as 44 ± 3.7%. For the molecule `CC1(C)CCC2=C(O1)C(=O)c1ccccc1C2=O` [O=C(C1=C2OC(C)(C)CC1)C3=CC=CC=C3C2=O], in data set [5] (setting [13]), the inhibition at 500 µM is 33 ± 14%. On the same count and under the same terms, with `NNC(=O)c1ccncc1` [O=C(C1=CC=NC=C1)NN] the figure was -4.9 ± 2.4%; with `CCn1cc(C(=O)O)c(=O)c2ccc(C)nc21` [O=C(C1=CN(CC)C2=C(C=CC(C)=N2)C1=O)O], -6.5 ± 2.2%.

`NC(=O)c1cnccn1` [O=C(C1=NC=CN=C1)N]: in [5] (setting [13]), the inhibition at 500 µM is 22 ± 1.5%. The same measure, in the same setting: as for `CC(=O)NCCN1C(=O)CNC1=O` [O=C(CN1)N(CCNC(C)=O)C1=O], the figure is 5.8 ± 3.4%; as for `Cn1cnc2c1c(=O)[nH]c(=O)n2C` [O=C(N1)N(C)C2=C(N(C)C=N2)C1=O], 17 ± 4.4%; as for `Cn1c(=O)c2[nH]cnc2n(C)c1=O` [O=C(N1C)N(C)C2=C(NC=N2)C1=O], -2.1 ± 3%.

For `NC(=O)N1c2ccccc2C=Cc2ccccc21` [O=C(N)N1C2=CC=CC=C2C=CC3=CC=CC=C31], the inhibition at 500 µM in [5] (setting [13]) came to 2.1 ± 5%.

Take `NC(=O)N1c2ccccc2CC(=O)c2ccccc21` [O=C(N)N1C2=CC=CC=C2CC(C3=CC=CC=C31)=O]: the inhibition at 500 µM in data set [5] (setting [13]) amounted to 0.85 ± 6.5%. On to `CCC1(c2ccccc2)C(=O)NC(=O)NC1=O` [O=C(NC(C1(CC)C2=CC=CC=C2)=O)NC1=O], for which the inhibition at 500 µM in data set [5] (setting [13]) amounted to 2.7 ± 1.6%.

`CCC1(CC)C(=O)NC(=O)NC1=O` [O=C(NC(C1(CC)CC)=O)NC1=O]: the inhibition at 500 µM in data set [5] (setting [13]) was 19 ± 6%. On the same count and under the same terms, with `CNC(=O)c1c(C(C)C)oc2nc(N3CCCC3)ccc12` [O=C(NC)C1=C(C(C)C)OC2=C1C=CC(N3CCCC3)=N2] the figure was 47 ± 10%. For the molecule `NNC(=O)Cc1cccnc1` [O=C(NN)CC1=CN=CC=C1], in data set [5] (setting [13]), the inhibition at 500 µM was 2.3 ± 22%.

As to `O=C(NNc1ccccc1)NNc1ccccc1` [O=C(NNC1=CC=CC=C1)NNC2=CC=CC=C2], the inhibition at 500 µM in data set [5] (setting [13]) was found to be 48 ± 1.8%. On the same count and under the same terms, with `O=C(O)c1ccccc1O` [O=C(O)C1=CC=CC=C1O] the figure was -10 ± 1.7%; with `N[C@@H](Cc1ccc(O)c(O)c1)C(=O)O` [O=C(O)[C@@H](N)CC1=CC=C(O)C(O)=C1], -4 ± 4.1%; with `CCOC(=O)c1ccc(N)cc1` [O=C(OCC)C1=CC=C(N)C=C1], 12 ± 1.4%.

As for `CCN(CC)CCOC(=O)c1ccc(N)cc1` [O=C(OCCN(CC)CC)C1=CC=C(N)C=C1], in data set [5] (setting [13]), the inhibition at 500 µM amounted to 50 ± 11%.

Regarding `Nc1ccc(S(N)(=O)=O)cc1` [O=S(C1=CC=C(N)C=C1)(N)=O], in [5] (setting [13]), the inhibition at 500 µM is -4.7 ± 2.3%.

Turning to `Cc1ccc(S(=O)(=O)n2cccc2)cc1` [O=S(N1C=CC=C1)(C2=CC=C(C)C=C2)=O], in [5] (setting [13]), the inhibition at 500 µM is -22 ± 5.8%. `O=[N+]([O-])c1cccc(C2=NCCO2)c1` [O=[N+](C1=CC=CC(C2=NCCO2)=C1)[O-]]: in data set [5] (setting [13]), the inhibition at 500 µM worked out at 44 ± 24%.

`O=c1cc(-c2ccccc2)c2c(O)cc(O)cc2o1` [OC1=CC(O)=CC(O2)=C1C(C3=CC=CC=C3)=CC2=O]: the inhibition at 500 µM in data set [5] (setting [13]) came out at 17 ± 27%. Still for that read-out and setting: as for `CC(C)[C@@H]1CC[C@@H](C)CC1O` (stereo partly drawn) [OC1[C@H](C(C)C)CC[C@@H](C)C1], the figure is 22 ± 5%; as for `Sc1nnc(Cc2ccccc2)s1` [SC1=NN=C(CC2=CC=CC=C2)S1], 9.4 ± 1%. `O=C(/C=C/c1cccc2c1oc1ccccc12)NO` [TB56]: the parasite burden result in data set [7] is “reduced parasite burden”.

On to `O=c1[nH]c(=S)[nH]c(-c2ccccc2)c1Cc1c(O)ccc2ccccc12` [cambinol], for which the concentration for a half-maximal effect (EC50) in [8] is 1.7 µM.

As to `COC(=O)Nc1nc2ccc(C(=O)c3ccccc3)cc2[nH]1` [mebendazole, reference compound], in data set [5], the “ligand efficiency (LE)” value was found to be 0.24, the IC50 is 121 µM and the “Hill coefficient (nH)” value is 1.25. Turning to `CC(C(=O)Nc1cccc(/N=C/c2c(O)ccc3ccccc23)c1)c1ccccc1` (stereo not drawn) [salermide], the concentration for half-maximal inhibition (IC50) in data set [9] was 1 µM. In addition, in data set [1], the EC50 was 10.6 µM.

Regarding `CC(NC(=O)c1ccccc1/N=C/c1c(O)ccc2ccccc12)c1ccccc1` (stereo not drawn) [sirtinol], the concentration for half-maximal inhibition (IC50) in data set [10] is 194 µM. Also, the EC50 in data set [8] is 5 µM; in data set [11], 30 µM.

Consider `Cc1cc(C)nc(NS(=O)(=O)c2ccc(N)cc2)n1` [sulfamethazine], for which the “% inhibition at 100 µM” value in data set [12] (Table S3, sulfonyl-hydrazone series, single concentration of 100 μM) is “Inconc”.

As for `Cc1cc(NS(=O)(=O)c2ccc(N)cc2)no1` [sulfamethoxazole, reference compound], in data set [5], the “inhibition of TbSir2rp1 (in words)” value was “did not induce any inhibition”. The inhibition at 100 µM in data set [12] (read-out: % inhibition at 100 µM, Table S3, sulfonyl-hydrazone series, single concentration of 100 μM) was found to be 2 ± 5.3%.
